Experimental data published in ChEMBL document CHEMBL1201862, “PubChem BioAssay data set” (2004).
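Method: 48-hour compound exposure of cells in 96-well plates, five concentrations, linear interpolation of endpoints. The concentration for 50% growth inhibition is given as GI50.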 Active and inactive are the calls of the source. Rule as the data show it: active = GI50 up to about 1.1 µM and inactive = higher.

Columns and labels:
Assay in all cases: NCI-60 cell line screen, 48 h
[1] = test system: SF-295
[2] = test system: ACHN
[3] = test system: IGROV-1
[4] = test system: OVCAR-3
[5] = test system: NCI-H226
[6] = test system: DU-145
[7] = test system: U-251
[8] = test system: HCT-116
[9] = test system: MDA-MB-231
[10] = test system: NCI-H522
[11] = test system: PC-3
[12] = test system: HT-29
[13] = test system: UO-31
[14] = test system: SR
[15] = test system: RXF 393
[16] = test system: SN12C
[17] = test system: A549
[18] = test system: EKVX
[19] = test system: TK-10

Structure (SMILES): CN(C)CCNC(=O)c1cccc2nc3cccc(F)c3nc12
- GI50 [1]: 1.52 µM (inactive)
- GI50 [2]: 0.484 µM (active)
- GI50 [3]: 1.6 µM (inactive)
- GI50 [4]: 1.99 µM (inactive)
- GI50 [5]: 1.24 µM (inactive)
- GI50 [6]: 2.47 µM (inactive)
- GI50 [7]: 1.38 µM (inactive)
- GI50 [8]: 0.542 µM (active)
- GI50 [9]: 1.32 µM (inactive)
- GI50 [10]: 1.05 µM (active)
- GI50 [11]: 1.38 µM (inactive)
- GI50 [12]: 0.867 µM (active)
- GI50 [13]: 0.883 µM (active)
- GI50 [14]: 0.57 µM (active)
- GI50 [15]: 1.54 µM (inactive)
- GI50 [16]: 1.02 µM (active)
- GI50 [17]: 0.53 µM (active)
- GI50 [18]: 2.16 µM (inactive)
- GI50 [19]: 2 µM (inactive)

Structure (SMILES): O=C(c1ccccc1)c1c(C(F)(F)F)[n+]([O-])c2ccccc2[n+]1[O-]
- GI50 [1]: 1.36 µM (inactive)
- GI50 [2]: 1.36 µM (inactive)
- GI50 [3]: 0.188 µM (active)
- GI50 [4]: 0.343 µM (active)
- GI50 [5]: 1.51 µM (inactive)
- GI50 [6]: 1.73 µM (inactive)
- GI50 [7]: 1.16 µM (inactive)
- GI50 [8]: 0.977 µM (active)
- GI50 [9]: 1.42 µM (inactive)
- GI50 [10]: 0.459 µM (active)
- GI50 [11]: 0.29 µM (active)
- GI50 [12]: 0.687 µM (active)
- GI50 [13]: 0.879 µM (active)
- GI50 [14]: 0.0738 µM (active)
- GI50 [15]: 1.46 µM (inactive)
- GI50 [16]: 0.951 µM (active)
- GI50 [17]: 0.634 µM (active)
- GI50 [18]: 2.17 µM (inactive)
- GI50 [19]: 1.64 µM (inactive)

Structure (SMILES): Cn1nc(-c2ccccc2)c2c(-c3ccccc3)c3cc(Cl)ccc3nc21
- GI50 [1]: 97.1 µM (inactive)
- GI50 [2]: > 100 µM (inactive)
- GI50 [3]: > 100 µM (inactive)
- GI50 [4]: > 100 µM (inactive)
- GI50 [5]: > 100 µM (inactive)
- GI50 [6]: > 100 µM (inactive)
- GI50 [7]: > 100 µM (inactive)
- GI50 [8]: 41.3 µM (inactive)
- GI50 [9]: > 100 µM (inactive)
- GI50 [10]: 45 µM (inactive)
- GI50 [11]: > 100 µM (inactive)
- GI50 [12]: 49.3 µM (inactive)
- GI50 [13]: > 100 µM (inactive)
- GI50 [14]: > 100 µM (inactive)
- GI50 [15]: > 100 µM (inactive)
- GI50 [16]: > 100 µM (inactive)
- GI50 [17]: > 100 µM (inactive)
- GI50 [18]: > 100 µM (inactive)
- GI50 [19]: > 100 µM (inactive)

Structure (SMILES): Clc1ccc(C2=NN=C3C(c4ccccc4)=Nc4ccccc4N3C2)cc1
- GI50 [1]: 11.1 µM (inactive)
- GI50 [2]: 7.06 µM (inactive)
- GI50 [3]: 7.87 µM (inactive)
- GI50 [4]: 2.02 µM (inactive)
- GI50 [5]: 6.52 µM (inactive)
- GI50 [6]: 1.91 µM (inactive)
- GI50 [7]: 5.46 µM (inactive)
- GI50 [8]: 4.17 µM (inactive)
- GI50 [9]: 32.7 µM (inactive)
- GI50 [10]: 2.75 µM (inactive)
- GI50 [11]: 8.61 µM (inactive)
- GI50 [12]: 3.01 µM (inactive)
- GI50 [13]: 3.72 µM (inactive)
- GI50 [14]: 1.08 µM (active)
- GI50 [15]: 1.48 µM (inactive)
- GI50 [16]: 20.9 µM (inactive)
- GI50 [17]: 13.5 µM (inactive)
- GI50 [18]: 4.97 µM (inactive)
- GI50 [19]: 3.89 µM (inactive)

Structure (SMILES): CCCCc1ccc(Nc2ncc3ncn(COCCO)c3n2)cc1
- GI50 [1]: 27.3 µM (inactive)
- GI50 [2]: 26.1 µM (inactive)
- GI50 [3]: 28.6 µM (inactive)
- GI50 [4]: 22.8 µM (inactive)
- GI50 [5]: 62.2 µM (inactive)
- GI50 [6]: 33.3 µM (inactive)
- GI50 [7]: 39.4 µM (inactive)
- GI50 [8]: 21 µM (inactive)
- GI50 [9]: 18.9 µM (inactive)
- GI50 [10]: 34.1 µM (inactive)
- GI50 [11]: 27 µM (inactive)
- GI50 [12]: 21.8 µM (inactive)
- GI50 [13]: 21.1 µM (inactive)
- GI50 [14]: 17.1 µM (inactive)
- GI50 [15]: 26.8 µM (inactive)
- GI50 [16]: 46.2 µM (inactive)
- GI50 [17]: 37.2 µM (inactive)
- GI50 [18]: 22.9 µM (inactive)
- GI50 [19]: 37.8 µM (inactive)

Structure (SMILES): C[C@]12C[C@H](c3ccccc3)Nc3ccccc3N1C(c1ccccc1)=NO2
- GI50 [1]: 22.5 µM (inactive)
- GI50 [2]: 64.1 µM (inactive)
- GI50 [3]: > 100 µM (inactive)
- GI50 [4]: 28.5 µM (inactive)
- GI50 [5]: > 100 µM (inactive)
- GI50 [6]: > 100 µM (inactive)
- GI50 [7]: 96.4 µM (inactive)
- GI50 [8]: 60.8 µM (inactive)
- GI50 [9]: > 100 µM (inactive)
- GI50 [10]: > 100 µM (inactive)
- GI50 [11]: 40.4 µM (inactive)
- GI50 [12]: 55.2 µM (inactive)
- GI50 [13]: 41.4 µM (inactive)
- GI50 [14]: 3.39 µM (inactive)
- GI50 [15]: > 100 µM (inactive)
- GI50 [16]: > 100 µM (inactive)
- GI50 [17]: > 100 µM (inactive)
- GI50 [18]: 21 µM (inactive)
- GI50 [19]: > 100 µM (inactive)

Structure (SMILES): Cc1cc(C)cc(Nc2nnc3n2S(=O)(=O)c2cc(C)c(Cl)cc2S3)c1
- GI50 [1]: 7.03 µM (inactive)
- GI50 [2]: 7.66 µM (inactive)
- GI50 [3]: 5.43 µM (inactive)
- GI50 [4]: 4.27 µM (inactive)
- GI50 [5]: 3.07 µM (inactive)
- GI50 [6]: 10.3 µM (inactive)
- GI50 [7]: 3.24 µM (inactive)
- GI50 [8]: 3.48 µM (inactive)
- GI50 [9]: 4.73 µM (inactive)
- GI50 [10]: 3.56 µM (inactive)
- GI50 [11]: 2.77 µM (inactive)
- GI50 [12]: 7.26 µM (inactive)
- GI50 [13]: 7.14 µM (inactive)
- GI50 [14]: 2.09 µM (inactive)
- GI50 [15]: 3.03 µM (inactive)
- GI50 [16]: 5.61 µM (inactive)
- GI50 [17]: 5.01 µM (inactive)
- GI50 [18]: 11.2 µM (inactive)
- GI50 [19]: 10.7 µM (inactive)
